We go through 3 molecules from ChEMBL document CHEMBL1133634, “3-Deoxyclocinnamox: the first high-affinity, nonpeptide mu-opioid antagonist lacking a phenolic hydroxyl group” (J Med Chem, 2000).

Chain of Mu-type opioid receptor (Homo sapiens) (P35372 whole entry): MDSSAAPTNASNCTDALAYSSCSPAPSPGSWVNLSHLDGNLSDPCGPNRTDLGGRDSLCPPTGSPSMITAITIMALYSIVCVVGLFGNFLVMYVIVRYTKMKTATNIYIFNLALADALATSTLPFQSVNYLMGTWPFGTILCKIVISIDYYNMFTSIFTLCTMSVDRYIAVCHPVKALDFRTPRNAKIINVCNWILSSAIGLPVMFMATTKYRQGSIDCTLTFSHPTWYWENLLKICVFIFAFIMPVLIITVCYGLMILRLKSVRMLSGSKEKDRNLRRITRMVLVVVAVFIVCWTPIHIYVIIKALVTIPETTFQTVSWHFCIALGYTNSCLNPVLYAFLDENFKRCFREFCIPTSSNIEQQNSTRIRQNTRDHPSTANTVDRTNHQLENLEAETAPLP

The test addresses Mu-type opioid receptor (Homo sapiens) (UniProt P35372). The test can be described thus: […] [35S]- GTPgammaS on Opioid receptor mu 1 in monkey brain membranes. Particulars: Cercopithecidae, Membrane, target entry is the homologue from another species. The test is classed as cell membranes. On the technique in general: Binding of GTPγS marks nucleotide exchange on a G protein.
As to `O=C(/C=C/c1ccc(Cl)cc1)NC12CCC(=O)C3Oc4cccc5c4[C@@]31CCN(CC1CC1)[C@@H]2C5` (stereo partly drawn), the Ke was determined as 0.28 nM.

`COc1ccc2c3c1O[C@H]1C(=O)CC[C@@]4(NC(=O)/C=C/c5ccc(Cl)cc5)[C@@H](C2)N(CC2CC2)CC[C@]314`: the Ke is 6.37 nM.

`O=C(/C=C/c1ccc(Cl)cc1)N[C@@]12CCC(=O)[C@@H]3Oc4c(O)ccc5c4[C@@]31CCN(CC1CC1)[C@@H]2C5` displayed a Ke of 0.37 nM.
